One data set has as its system mice. In words: Acute toxicity test in mice. The data set is classed as in vivo. As to conditions: male, 20160 min. The method, then:
(§1) The acute toxicity tests of sodium N-acetylneuraminate to mice, rats and guinea pigs given by oral administration or subcutaneous injection, intraperitoneal injection, intravenous injection or inhalation, were conducted as follows:
(§2) 20 w/v % (solution in distilled water)

Data set [1] deals with nasal mucous membranes of rats. In words: Acute disappearance of cilia from nasal mucous membranes of rats and degeneration of the epithelium induced by exposure to sulfur dioxide. For Disappearance of epithelium: key: -: Unchanged; +: Slight; ++: Moderate change; +++: Severe. For Monolayer squamous metaplasia of epithelium: key: -: Unchanged; +: Slight; ++: Moderate change; +++: Severe. For disappearance of cilia: key: -: Unchanged; +: Slight; ++: Moderate change; +++: Severe. It is filed as in vivo, Male Wistar rats. The following applies: for Disappearance of cilia / Disappearance of epithelium / Monolayer squamous metaplasia of epithelium: per animal. The method, then:
The effects of test samples on acute disappearance of cilia from nasal mucous membranes of rats and the degeneration of the epithelium induced by exposure to sulfur dioxide:
Male Wistar rats weighing 180 to 200 g were used.
(§3) Sodium N-acetylneuraminate (a product of MECT Corporation) was used.
The rats were exposed to 400 ppm of sulfur dioxide for 4 hours. 30 minutes after the exposure, the rats were caused to inhale the test sample or physiological saline as follows:
Group I: inhalation of 300 mg/m^3 of sodium N-acetylneuraminate for 1 hour.
Group II: inhalation of 100 mg/m^3 of sodium N-acetylneuraminate for 1 hour.
Group III: inhalation of 20 ml/m^3 of the physiological saline for 1 hour.
Each group comprised 5 rats.
24 hours after the inhalation of the materials or physiological saline, the rats were killed and their intranarial changes were examined by a microscopic observation and the results were compared with one another.

The next data set in a line: Stability versus pH. It is filed as physicochemical.
The subject of the next data set is rats. In words: Acute toxicity test in rats. The data set is classed as in vivo. The method, then: as §1, §2
In the inhalation, the subjects were exposed to a spray of the compound o

Data set [2] relates to nasal mucous membrane of rabbits. In words: Subacute disappearance of cilia from nasal mucous membrane of rabbits and degeneration of the epithelium induced by exposure to sulfur dioxide. For disappearance of cilia: key: -: Unchanged; +: Slight; ++: Moderate change; +++: Severe. It is filed as in vivo, Male New Zealand White rabbits. The method, then:
Effects on subacute disappearance of cilia from nasal mucous membrane of rabbits and degeneration of the epithelium thereof induced by exposure to sulfur dioxide:
Male New Zealand White rabbits weighing 1.8 to 2.2 kg were used.
as §3
The rabbits were exposed to sulfur dioxide by means of a sulfur dioxide-exposing apparatus for 2 hours a day continuously for 5 weeks. The sulfur dioxide concentrations were 70 to 150 ppm in the first and second weeks and 200 to 300 ppm in the third to fifth weeks. After the third week, the inhalation of the material or physiological saline by means of an ultrasonic nebulizer (TUR-3200: a product of Nippon Koden Co., Ltd.) was made immediately before the exposure to sulfur dioxide.
Group I: inhalation of 25 mg/kg of sodium N-acetylneuraminate for 2 minutes.
Group II: inhalation of 1 ml of physiological saline for 2 minutes.
Each group comprised six rabbits.
Five weeks after completion of the exposure to sulfur dioxide, the rabbits were killed by venesection and the intranarial changes of them were examined by a microscopic observation and the results were compared with one another.

The mark [3] stands for this setting: Group I: inhalation 300 mg/m^3 for 1 hour.
The mark [4] stands for this setting: Group II: inhalation 100 mg/m^3 for 1 hour.
Setting [5] is: Group I: inhalation 25 mg/kg for 2 minutes, per animal.

Like-named read-outs stand apart in the source and are kept apart here.

As for `CC(=O)N[C@H]1[C@H]([C@H](O)[C@H](O)CO)OC(O)(C(=O)[O-])C[C@@H]1O.[Na+]` (some centres unmarked), the LD50 was > 5,000 mg/kg in the data set on mice (intraperitoneal); > 5,000 mg/kg in the data set on mice (intravenous); > 5,000 mg/kg in the data set with mice (oral); > 5,000 mg/kg with mice (subcutaneous); > 5,000 mg/kg with rats; > 4,000 mg/m^3 in the data set on rats (rats, female, inhalation, spray for one hour). Besides, the LD50 was > 4,000 mg/m^3 in the data set on rats (rats, male, inhalation, spray for one hour); > 5,000 mg/kg with rats (rats, male, intraperitoneal, 20160 min); > 5,000 mg/kg in the data set on rats (rats, male, intravenous, 20160 min); > 5,000 mg/kg with rats (rats, male, oral, 20160 min). Further, the Disappearance of cilia result in data set [1] (setting [3]) is “++ and +”; in data set [1] (setting [4]) it was “+ and - and ++”; in data set [2] (setting [5]), “- and + and ++”. For the same compound, the Disappearance of epithelium entry in data set [1] (setting [3]) and in data set [1] (setting [4]) was “-” throughout. Moreover, the “Monolayer squamous metaplasia of epithelium” value in data set [1] (setting [3]) and in data set [1] (setting [4]) was “-” throughout. In addition, the “Intranarial changes” value in data set [1] (Groups I and II (300 and 100 mg/m^3), compared with Group III (physiological saline)) was “only the disappearance of cilia was observed and the degree of the disappearance was lower than that of Group III”. Also, in data set [1] (sulfur dioxide exposure, rats), the “Inhibition of acute disappearance of cilia, monolayer squamous metaplasia and disappearance of epithelium / degeneration of nasal mucous membranes” value is on record as “remarkable effect of inhibiting”. Also, the “pH range of greatest stability” value in the data set “Stability versus pH” is reported as 5.5 to 6.0. Also, the “Squamous metaplasia of epithelium, comparison of groups” value in data set [2] (Group I (25 mg/kg) versus Group II (physiological saline)) is “more serious in Group II than in Group I”. The “Squamous metaplasia of epithelium” value in data set [2] (setting [5]) is “- and + and ++”. Further, in data set [2] (sulfur dioxide exposure, 25 mg/kg inhalation), the “Inhibition of subacute disappearance of cilia and squamous metaplasia of epithelium / repair of cells and tissues of nasal mucous membranes” value was “remarkable effect of inhibiting”.

Values taken from US5015631A, “Repairing agent for cells and tissues” (MECT Corporation, priority 1987, dated 1991).
